Data as given in BindingDB's records for doi:10.7270/Q2NZ862K (Nmmlsc, 2007).

Biological target: T1, fMet-Leu-Phe receptor (Homo sapiens, UniProt P21462)
T1 sequence (P21462 whole entry): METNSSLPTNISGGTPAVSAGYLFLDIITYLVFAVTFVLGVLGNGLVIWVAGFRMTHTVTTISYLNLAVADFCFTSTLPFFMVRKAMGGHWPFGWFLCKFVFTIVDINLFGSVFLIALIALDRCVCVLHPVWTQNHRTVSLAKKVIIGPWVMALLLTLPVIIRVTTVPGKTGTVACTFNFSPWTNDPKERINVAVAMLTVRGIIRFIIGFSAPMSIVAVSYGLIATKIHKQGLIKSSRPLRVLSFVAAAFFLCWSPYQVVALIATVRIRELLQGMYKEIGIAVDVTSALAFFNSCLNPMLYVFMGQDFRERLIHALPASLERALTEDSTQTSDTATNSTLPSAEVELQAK
Assay: formyl peptide receptor binders – dose response (AID 519)

COc1ccc(C(=O)C2C(=O)C(=O)N(c3nc(C)c(C)s3)C2c2ccco2)cc1 (stereo not given) [(4Z)-1-(4,5-dimethyl-1,3-thiazol-2-yl)-5-(furan-2-yl)-4-[(4-methoxyphenyl)-oxidanyl-methylidene]pyrrolidine-2,3-dione]
Ki: > 43.7 µM

CCOc1cccc(C(=O)C2C(=O)C(=O)N(CCOC)C2c2ccc(C)o2)c1 (stereo not given) [(4Z)-4-[(3-ethoxyphenyl)-hydroxymethylidene]-1-(2-methoxyethyl)-5-(5-methyl-2-furanyl)pyrrolidine-2,3-dione]
Ki: 8.8 µM

CCOc1cccc(C(=O)C2C(=O)C(=O)N(Cc3cccnc3)C2c2ccco2)c1 (stereo not given) [(4Z)-4-[(3-ethoxyphenyl)-hydroxymethylidene]-5-(2-furanyl)-1-(3-pyridinylmethyl)pyrrolidine-2,3-dione]
Ki: > 43.7 µM

Cc1ccc(C2C(C(=O)c3ccc(Br)cc3)C(=O)C(=O)N2Cc2ccco2)o1 (stereo not given) [(4Z)-4-[(4-bromophenyl)-hydroxy-methylene]-1-(2-furfuryl)-5-(5-methyl-2-furyl)pyrrolidine-2,3-quinone]
Ki: > 43.7 µM

Cc1ccc(C2C(C(=O)c3ccc(Cl)cc3)C(=O)C(=O)N2CC2CCCO2)o1 (stereo not given) [(4Z)-4-[(4-chlorophenyl)-hydroxy-methylene]-5-(5-methyl-2-furyl)-1-(tetrahydrofurfuryl)pyrrolidine-2,3-quinone]
Ki: 7.6 µM

CCOc1ccc(C(=O)C2C(=O)C(=O)N(CC3CCCO3)C2c2ccco2)cc1 (stereo not given) [(4Z)-4-[(4-ethoxyphenyl)-hydroxymethylidene]-5-(2-furanyl)-1-(2-oxolanylmethyl)pyrrolidine-2,3-dione]
Ki: 21 µM

CCOc1ccc(C(=O)C2C(=O)C(=O)N(CC3CCCO3)C2c2ccc(C)o2)cc1 (stereo not given) [(4Z)-4-[(4-ethoxyphenyl)-hydroxymethylidene]-5-(5-methyl-2-furanyl)-1-(2-oxolanylmethyl)pyrrolidine-2,3-dione]
Ki: 13.8 µM

COc1ccc(C(=O)C2C(=O)C(=O)N(CCN3CCOCC3)C2c2ccc(C)cc2)cc1 (stereo not given) [(4Z)-4-[(4-methoxyphenyl)-oxidanyl-methylidene]-5-(4-methylphenyl)-1-(2-morpholin-4-ylethyl)pyrrolidine-2,3-dione]
Ki: > 43.7 µM

Cc1ccc(C(=O)C2C(=O)C(=O)N(CCN3CCOCC3)C2c2cccnc2)cc1 (stereo not given) [(4Z)-4-[(4-methylphenyl)-oxidanyl-methylidene]-1-(2-morpholin-4-ylethyl)-5-pyridin-3-yl-pyrrolidine-2,3-dione]
Ki: > 43.7 µM

COc1ccccc1C1C(C(=O)c2ccccc2)C(=O)C(=O)N1CC(C)O (stereo not given) [(4Z)-4-[hydroxy(phenyl)methylene]-1-(2-hydroxypropyl)-5-(2-methoxyphenyl)pyrrolidine-2,3-quinone]
Ki: 16.1 µM

COc1ccccc1C1C(C(=O)c2ccccc2)C(=O)C(=O)N1CC(C)C (stereo not given) [(4Z)-4-[hydroxy(phenyl)methylene]-1-isobutyl-5-(2-methoxyphenyl)pyrrolidine-2,3-quinone]
Ki: 3.6 µM

Cc1ccc(C2C(C(=O)c3cnn(-c4ccccc4)c3C)C(=O)C(=O)N2CCN2CCOCC2)o1 (stereo not given) [(4Z)-4-[hydroxy-(5-methyl-1-phenyl-4-pyrazolyl)methylidene]-5-(5-methyl-2-furanyl)-1-[2-(4-morpholinyl)ethyl]pyrrolidine-2,3-dione]
Ki: 15.2 µM

COc1ccc(C2C(C(=O)c3ccccc3)C(=O)C(=O)N2CC(C)O)c(OC)c1 (stereo not given) [(4Z)-5-(2,4-dimethoxyphenyl)-4-[hydroxy(phenyl)methylene]-1-(2-hydroxypropyl)pyrrolidine-2,3-quinone]
Ki: 25.3 µM

COc1ccc(OC)c(C2C(C(=O)c3ccccc3)C(=O)C(=O)N2Cc2ccco2)c1 (stereo not given) [(4Z)-5-(2,5-dimethoxyphenyl)-1-(2-furanylmethyl)-4-[hydroxy(phenyl)methylidene]pyrrolidine-2,3-dione]
Ki: 2.2 µM

COc1cccc(C(=O)C2C(=O)C(=O)N(Cc3cccnc3)C2c2ccco2)c1 (stereo not given) [(4Z)-5-(2-furanyl)-4-[hydroxy-(3-methoxyphenyl)methylidene]-1-(3-pyridinylmethyl)pyrrolidine-2,3-dione]
Ki: > 43.7 µM

C=C(c1ccc(Br)cc1)c1sc(N2CCCC2)nc1O [(5Z)-5-[1-(4-bromophenyl)ethylidene]-2-(1-pyrrolidinyl)-4-thiazolone]
Ki: > 43.7 µM

O=c1c(C23CC4CC(CC(C4)C2)C3)c(O)n(-c2ccccc2)n1-c1ccccc1 [MLS000526352]
Ki: 7.5 µM

CCN(CC)c1ccc(C=NC(C#N)C(=N)C#N)cc1 (stereo not given) [SMR000023871]
Ki: > 43.7 µM

COc1cccc(OC)c1C(=O)C(C#N)c1nc2ccccc2[nH]1 (stereo not given) [SMR000024183]
Ki: > 43.7 µM

COC(=O)c1[nH]c(C)c(C(=O)C2C(=O)C(=O)N(CCCN3CCOCC3)C2c2ccccn2)c1C (stereo not given) [methyl 4-{[4-hydroxy-1-[3-(4-morpholinyl)propyl]-5-oxo-2-(2-pyridinyl)-2,5-dihydro-1H-pyrrol-3-yl]carbonyl}-3,5-dimethyl-1H-pyrrole-2-carboxylate]
Ki: 6.3 µM
